Broadly, the IC50 is the midpoint of a concentration-inhibition curve. What is called clearance is the volume of plasma or blood freed of the substance per unit of time. Lower therefore signals a low capacity for elimination. Broadly, the bioavailability is the share of a dose that reaches the circulation, judged against a reference dose that is usually intravenous.

The test system of data set [1] is 20S immunoproteasome beta-5i subunit. Nature of the data set: Selectivity ratio of IC50 for cytotoxicity against human primary hepatocytes to IC50 for inhibition of 20S immunoproteasome beta-5i subunit in human PBMC. As to conditions: read-out: Ratio IC50. In kind it is toxicity.
Data set [2] can be described thus: Cytotoxicity against Wistar Han rat hepatocytes assessed as depletion of ATP content incubated for 48 to 72 hrs by CellTiter-Glo luminescent assay. The data set is classed as toxicity, cell-based, Hepatocyte.
The nature of data set [3]: Clearance in iv dosed mouse. The data set is classed as ADME, organism-based. As to conditions: in vivo.
The subject of data set [4] is 20S immunoproteasome beta-5i subunit. Nature of the data set: Selectivity ratio of IC50 for cytotoxicity against human HepG2 cells to IC50 for inhibition of 20S immunoproteasome beta-5i subunit in human PBMC. In kind it is toxicity, cell-based. Particulars: read-out: Ratio IC50.
Data set [5] can be described thus: Volume of distribution at steady state in iv dosed mouse. In kind it is ADME, organism-based. Particulars: in vivo, read-out: Vdss.
Data set [6] in a line: Oral bioavailability in mouse at 10 mg/kg. In kind it is ADME, organism-based. As to conditions: in vivo.
Data set [7] can be described thus: Intrinsic clearance in mouse liver microsomes measured per mg protein. The data set is classed as ADME, Microsome. As to conditions: read-out: CLH. On the technique in general: Microsomes from liver hold many membrane-bound enzymes, among them those of drug oxidation.
The subject of data set [8] is U-266. Kind of data set: Antitumor activity against human U266B1 cells xenografted in H2d Rag2 mouse assessed as reduction in tumor volume at 1 mg/kg, po administered once daily and measured for 21 days. The data set is classed as functional, organism-based. Particulars: time 21.0 day. In general terms: In xenograft studies the graft and the host belong to different species.

Data set [9] deals with T1, Proteasome subunit beta type-8 (Homo sapiens, UniProt P28062).
T1 sequence (P28062 whole entry): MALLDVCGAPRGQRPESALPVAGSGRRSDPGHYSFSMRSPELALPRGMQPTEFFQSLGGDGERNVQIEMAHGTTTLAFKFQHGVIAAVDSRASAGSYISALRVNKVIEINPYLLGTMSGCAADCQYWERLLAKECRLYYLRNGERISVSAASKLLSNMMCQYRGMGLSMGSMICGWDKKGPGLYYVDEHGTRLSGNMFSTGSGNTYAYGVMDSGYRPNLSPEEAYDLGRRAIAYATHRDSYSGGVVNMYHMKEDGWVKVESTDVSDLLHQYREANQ
Nature of the data set: Inhibition of human 20S immunoproteasome beta-5i subunit using Suc-LLVY-AMC as substrate preincubated for 2 hrs followed by substrate addition and measured after 1 hr by fluorescence intensity assay.

The test system of data set [10] is U-266. Nature of the data set: In vivo inhibition of LMP7 activity in tumor lysates of H2d Rag2 mouse xenografted with human U266B1 cells at 0.3 mg/kg, po administered as single dose using (Ac-ANW)2R110 as substrate measured after 1 to 6 hrs by fluorescence intensity assay. In kind it is functional, organism-based. Particulars: Neoplasm, time 1-6 hrs.
In data set [11] the test system is U-266. Nature of the data set: Antitumor activity against human U266B1 cells xenografted in H2d Rag2 mouse assessed as reduction in tumor volume at 0.3 mg/kg, po administered once daily and measured for 21 days. The data set is classed as functional, organism-based. As to conditions: time 21.0 day.
Data set [12] deals with T2, Proteasome subunit beta type-6 (Homo sapiens, UniProt P28072).
T2 sequence (P28072 whole entry): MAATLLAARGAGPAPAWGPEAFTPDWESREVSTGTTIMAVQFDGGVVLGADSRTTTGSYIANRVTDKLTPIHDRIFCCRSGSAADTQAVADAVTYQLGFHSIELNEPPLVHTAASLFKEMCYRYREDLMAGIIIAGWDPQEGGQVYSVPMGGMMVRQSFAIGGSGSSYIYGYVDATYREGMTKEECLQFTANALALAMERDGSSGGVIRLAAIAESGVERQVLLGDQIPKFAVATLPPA
Kind of data set: Inhibition of human 20S […] beta1 subunit using Ac-nLPnLD-AMC as substrate preincubated for 2 hrs followed by substrate addition and measured after 1 hr by fluorescence intensity assay.

Activity calls are given as the source filed them. The rule behind the calls is not given here. Some results are limits rather than exact numbers.

Turning to `O=C(N[C@@H](Cc1coc2ccccc12)B(O)O)[C@@H]1C[C@H]2CC[C@@H]1O2`, the selectivity ratio in data set [1] and in data set [4] was 10000 each time. The concentration for half-maximal inhibition (IC50) in data set [2] was 64 µM; in [9] it was 0.0036 µM; in data set [12] it was more than 30 µM. Besides, the clearance in data set [3] is 3.17 mL/min/kg. Further, in data set [5], the Vd was 0.47 L/kg. This molecule came in with a bioavailability in data set [6] of 35%. In addition, in data set [7], the microsomal CLint amounted to 14 µL/min/mg. In addition, the outcome in the data set with U-266 [8] and in the data set with U-266 [11] was Active. The inhibition result in the data set on U-266 [10] was “Active”.

The values are drawn from ChEMBL document CHEMBL5149996, “Structure-Based Optimization and Discovery of M3258, a Specific Inhibitor of the Immunoproteasome Subunit LMP7 (β5i)” (J Med Chem, 2021).
